IC50 data for one compound are collected here from article PMC9267852, “Hepatic Expression of the Na^+-Taurocholate Cotransporting Polypeptide Is Independent from Genetic Variation” (International Journal of Molecular Sciences, 2022).

Structures are written as SMILES. Changes are numbered by the printed parent chain.

Holding throughout (type): cell-based
The target in assay [1] is T1, Na+-taurocholate cotransporting polypeptide (NTCP) (Homo sapiens, UniProt Q14973).
T1 construct: gene SLC10A1
T1 sequence (Q14973 1-349): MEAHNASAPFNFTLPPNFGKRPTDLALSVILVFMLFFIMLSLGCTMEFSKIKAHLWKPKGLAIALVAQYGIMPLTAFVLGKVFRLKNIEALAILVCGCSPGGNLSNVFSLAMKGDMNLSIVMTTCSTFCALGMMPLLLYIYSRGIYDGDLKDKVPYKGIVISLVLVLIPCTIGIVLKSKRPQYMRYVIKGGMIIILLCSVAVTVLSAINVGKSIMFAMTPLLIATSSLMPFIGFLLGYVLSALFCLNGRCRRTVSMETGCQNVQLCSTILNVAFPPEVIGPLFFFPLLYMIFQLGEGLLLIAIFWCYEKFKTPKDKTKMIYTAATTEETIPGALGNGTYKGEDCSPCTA
The experiment in a line: inhibition of [3H]taurocholate uptake in NTCP-expressing HEK cells; remdesivir also taken up sodium-dependently (Km […]).

For assay [2], the target named is T2, Na+-taurocholate cotransporting polypeptide (NTCP) (Homo sapiens, UniProt Q14973, R185C).
T2 construct: gene SLC10A1; NTCP-p.R185C, stably expressed in HEK cells
T2 sequence (Q14973 1-349 R185C): T1 sequence (Q14973 1-349) with R185C
The experiment in a line: inhibition of [3H]taurocholate uptake in NTCP-R185C-expressing HEK cells; sodium-dependent remdesivir uptake Km […].

Assay [3] concerns the target T3, Na+-taurocholate cotransporting polypeptide (NTCP) (Homo sapiens, UniProt Q14973, S213R).
T3 construct: gene SLC10A1; NTCP-p.S213R, stably expressed in HEK cells
T3 sequence (Q14973 1-349 S213R): T1 sequence (Q14973 1-349) with S213R
The experiment in a line: inhibition of [3H]taurocholate uptake in NTCP-S213R-expressing HEK cells; sodium-dependent remdesivir uptake Km […].

On to `CCC(CC)COC(=O)[C@H](C)N[P@](=O)(OC[C@H]1O[C@@](C#N)(c2ccc3c(N)ncnn23)[C@H](O)[C@@H]1O)Oc1ccccc1` [remdesivir], for which the figures for the 50% inhibitory concentration (IC50) in assay [1], in assay [2] and in assay [3] were 90.3 µM, 65 µM and 63.1 µM, respectively.
